The text below walks through data of patent US6878736B1, “Histamine H3 receptor ligands” (James Black Foundation Limited, priority 1998, dated 2005).

Structures can show the parent of a compound that is named as a salt.

Sequence of Histamine H3 receptor (Q9JI35 whole entry): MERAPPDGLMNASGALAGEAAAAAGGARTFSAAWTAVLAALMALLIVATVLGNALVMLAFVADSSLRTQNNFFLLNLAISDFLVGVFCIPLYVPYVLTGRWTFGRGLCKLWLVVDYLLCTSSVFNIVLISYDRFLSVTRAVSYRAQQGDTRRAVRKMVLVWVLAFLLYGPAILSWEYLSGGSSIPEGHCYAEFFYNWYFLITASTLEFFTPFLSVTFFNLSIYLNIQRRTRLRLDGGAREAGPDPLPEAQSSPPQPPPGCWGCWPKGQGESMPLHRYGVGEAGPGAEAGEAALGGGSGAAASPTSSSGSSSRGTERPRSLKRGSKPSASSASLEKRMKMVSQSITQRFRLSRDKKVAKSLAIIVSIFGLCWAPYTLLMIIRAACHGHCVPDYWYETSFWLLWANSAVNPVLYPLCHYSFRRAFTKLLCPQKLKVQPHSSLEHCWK

The first assay concerns the target Histamine H3 receptor (Cavia porcellus, UniProt Q9JI35). Put plainly: Histamine H3 radioligand binding assay, guinea pig cortex ([3H]-R-α-methylhistamine). The following applies: guinea pig cortex membranes, competition with 1 nM [3H]-R-α-methylhistamine. The procedure: The compounds of the invention were also tested in a guinea pig cortex binding assay, as follows:
Histamine H3 Radioligand Binding Assay—Guinea Pig Cortex
Male Dunkin Hartley guinea pigs (200-300 g) were used. The whole brain was removed and immediately placed in ice-cold 20 mM Hepes-NaOH buffer (pH7.4 at 21±3° C.). The cortex was dissected, weighed and homogenised in ice-cold 20 mM Hepes-NaOH buffer (pH7.4 at 21±3° C.) (50 ml/guinea-pig cortex) using a polytron (Kinematica AG; PT-DA 3020/2TS, 3×3 s). The homogenate was centrifuged at 100×g for 5 min and the supernatants pooled and stored at 4° C. The pellets were rehomogenised in fresh ice-cold buffer (80 ml) and recentrifuged (100×g for 5 min). The supernatants were pooled and pellets rehomogenised and recentrifuged (100×g for 5 min). All supernatants were pooled and centrifuged at 39,800×g for 12 min at 4° C. The final pellet was resuspended in 20 mM Hepes-NaOH buffer (pH7.4 at 21±3° C.) to a tissue concentration of 7.5 mg.ml^−1, using a teflon-in-glass homogeniser.
Guinea pig cortex membranes (400 μl) were incubated for 165 min at 21±3° C. in a final volume of 500 μl with 20 mM Hepes-NaOH buffer containing [^3H]-R-α-methylhistamine (50 μl; 1 nM) and competing compound. Total and non-specific binding of [^3H]-R-α-methylhistamine were defined using 50 μl of buffer and 50 μl of 10 μM thioperamide, respectively. The assay was terminated by rapid filtration through Whatman GF/B filters, presoaked (2 hr) in 0.1% polyethyleneimine, using a Brandell Cell Harvester. The filters were washed (3×3 ml) with ice-cold 50 mM Tris-HCl (pH6.9 at 21±3° C.), transferred into scintillation vials, 5 ml liquid scintillation cocktail was added and after 4 hours the bound radioactivity was determined by counting (4 min) in a Beckman liquid scintillation counter.
Data are analysed using GraphPad prism and the general equation for a competition curve with variable Hill slope (nH). [formula] where • X is the log concentration of competing compound, • Y is the binding obtained at each concentration of X, • pIC50 is the concentration of the competitor required to compete for half of the specific binding.
The IC50 is converted to the K1 using the Cheng Prusoff equation, K1=IC50/(1+(L/KD)) where • IC50 is the concentration of competitor required to compete for half the specific binding, • L is the radioligand concentration used, • KD is the equilibrium dissociation constant for the radioligand determined by saturation experiments.
In the case of `Cl.Cl.N=C(NCCCN1CCCC1)NCC1CCCCC1` [Example 39, N-Cyclohexyl-methyl-N′-(3-pyrrolidin-1-yl-propyl)-guanidine bis-hydrochloride], the “pKi (Guinea pig cortex)” value is on record as 7.4.

Still in this assay, the particulars now being: guinea pig cortex membranes, competition with 1 nM [3H]-R-α-methylhistamine; read-out: pKi (Guinea pig cortex) (converted).
As for `CN1CCCCC1CCNS(=O)(=O)c1ccc2ccccc2c1` (stereo not drawn) [Example 90, N-(2-(1-Methyl-piperidin-2-yl)-ethyl)-2-naphthalenesulfonamide], the Ki is 1260 nM.

For `CN1CCC[C@H]1CCCN(CC(=O)NCc1ccc(Cl)cc1)S(=O)(=O)NCc1ccc(Cl)cc1` [Example 129, N-(4-Chlorobenzyl)-N′-(4-chlorobenzylamidomethyl)-N′-(3-(1-methyl-pyrrolidin-2S-yl)propyl)-sulfamide], the Ki is 794 nM.

In the case of `CN(CCN1CCCC1)S(=O)(=O)c1ccc2ccccc2c1` [Example 86, N-(2-Pyrrolidin-1-yl-ethyl)-N-methyl-2-naphthalenesulfonamide], the Ki was 2510 nM.

Take `N=C(NCCCN1CCOCC1)NCc1ccc(Cl)cc1` [Example 15, N-(4-Chlorobenzyl)-N′-(3-morpholin-4-yl-propyl)-guanidine bis-hydrochloride]: the Ki was 794 nM.

As for `CN1CCCC1CCNC(=N)NCc1ccc(Cl)cc1` (stereo not drawn) [Example 27, N-(4-Chlorobenzyl)-N′-(2-(1-methyl-pyrrolidin-2-yl)-ethyl)-guanidine bis-hydrochloride], the Ki was 158 nM.

As for `CN1CCC[C@H]1CCCN(CCO)S(=O)(=O)NCc1ccc(Cl)cc1` [Example 124, N-(4-Chlorobenzyl)-N′-(2-hydroxyethyl)-N′-(3-(1-methyl-pyrrolidin-2S-yl)propyl)-sulfamide], the Ki is 1260 nM.

For `CN1CCCC1CCNS(=O)(=O)c1ccc(Cl)cc1` (stereo not drawn) [Example 96, N-(2-(1-Methyl-pyrrolidin-2-yl)-ethyl)-4-chlorophenylsulfonamide], the Ki is 1580 nM.

As for `CN1CCC[C@@H]1CCCNS(=O)(=O)NCc1ccc(Cl)cc1` [Example 109, N-(4-Chlorobenzyl)-N′-(3-(1-methyl-pyrrolidin-2R-yl)-propyl)-sulfamide], the Ki was 200 nM.

For the compound `CN1CCCC(CCCNS(=O)(=O)c2ccc3ccccc3c2)C1` (stereo not drawn) [Example 92, N-(3-(1-Methyl-piperidin-3-yl)-propyl)-2-naphthalenesulfonamide], the Ki is 2000 nM.

Take `Cc1ccc(S(=O)(=O)NCCC2CCCN2C)cc1` (stereo not drawn) [Example 95, N-(2-(1-Methyl-pyrrolidin-2-yl)ethyl)4-toluenesulfonamide]: the Ki is 1580 nM.

With `N=C(NCCCCCN1CCCC1)NCc1ccc(C2CCCCC2)cc1` [Example 57, N-(4-Cyclohexylbenzyl)-N′-(5-pyrrolidin-1-yl-pentyl)-guanidine bis-hydrochloride], the Ki was 20 nM.

On to `N=C(NCCc1ccc(Cl)cc1)NCCN1CCCC1` [Example 23, N-(2-(4-Chlorophenyl)ethyl)-N′-(2-pyrrolidin-1-yl-ethyl)-guanidine bis-hydrochloride], for which the Ki was 316 nM.

For `CN1CCC[C@H]1CCCN(CCCN)S(=O)(=O)NCc1ccc(Cl)cc1` [Example 126, N-(4-Chlorobenzyl)-N′-(3-amino-propyl)-N′-(3-(1-methyl-pyrrolidin-2S-yl)propyl)-sulfamide], the Ki is 1000 nM.

As for `CN1CCC[C@H]1CCNS(=O)(=O)Cc1ccc(Cl)cc1` [Example 97, N-(2-(1-Methyl-pyrrolidin-2S-yl)-ethyl)-(4-chlorophenyl)-methanesulfonamide], the Ki is 1580 nM.

On to `CC(C)CN1CCC[C@H]1CCCNS(=O)(=O)Cc1ccc(Cl)cc1` [Example 143], for which the Ki was 794 nM.

For the compound `CN1CCC[C@H]1CCCN(CC(=O)OCc1ccccc1)S(=O)(=O)NCc1ccc(Cl)cc1` [Example 130, N-(4-Chlorobenzyl)-N′-(benyloxycarbonylmethyl)-N′-(3-(1-methyl-pyrrolidin-2S-yl)propyl)-sulfamide], the Ki is 5010 nM.

For the compound `CN1CCC(CCCNS(=O)(=O)c2ccc3ccccc3c2)CC1` [Example 93, N-(3-(1-Methyl-piperidin-4-yl)-propyl)-2-naphthalenesulfonamide], the Ki was 3160 nM.

Consider `CN(C)C(=O)CN(CCC[C@@H]1CCCN1C)S(=O)(=O)NCc1ccc(Cl)cc1` [Example 128, N-(4-Chlorobenzyl)-N′-(dimethylamidomethyl)-N′-(3-(1-methyl-pyrrolidin-2S-yl)propyl)-sulfamide], for which the Ki was 3160 nM.

As to `CN1CCN(CCCCNS(=O)(=O)c2ccc3ccccc3c2)CC1` [Example 85, N-(4-(4-Methyl-piperazin-1-yl)-butyl)-2-naphthalenesulfonamide], the Ki is 158 nM.

Take `COC(=O)CN(CCC[C@@H]1CCCN1C)S(=O)(=O)NCc1ccc(Cl)cc1` [Example 123, N-(4-Chlorobenyl)-N′-(methoxycarbonylmethyl)-N′-(3-(1-methyl-pyrrolidin-2S-yl)propyl)-sulfamide]: the Ki was 251 nM.

Regarding `[O-][S+](NCCCN1CCCC1)c1ccc2ccccc2c1` (stereo not drawn) [Example 87, N-(3-Pyrrolidin-1-yl-propyl)-2-naphthalenesulfinamide], the Ki is 1260 nM.

On to `CN1CCC[C@H]1CCCNS(=O)(=O)NCCc1ccc(Cl)cc1` [Example 111, N-(2-(4-Chlorophenyl)-ethyl)-N′-(3-(1-methyl-pyrrolidin-2S-yl)-propyl)-sulfamide], for which the Ki is 1580 nM.

As for `CN1CCCC1CCNS(=O)(=O)c1cccc2ccccc12` (stereo not drawn) [Example 94, N-(2-(1-Methyl-pyrrolidin-2-yl)-ethyl)-1-naphthalenesulfonamide], the Ki is 2510 nM.

In the case of `O=S(=O)(NCCN1CCCC1)NCc1ccc(Cl)cc1` [Example 134, N-(4-Chlorobenzyl)-N′-(2-pyrrolidin-1-yl-ethyl)-sulfamide], the Ki was 1000 nM.

For `CN1CCCC1CCCCS(=O)(=O)NCC12CC3CC(CC(C3)C1)C2` (stereo not drawn) [Example 138, N-Adamantan-1-yl-methyl-4-(1-methyl-pyrrolidin-2S-yl)-butanesulfonamide], the Ki is 1260 nM.

Take `CN1CCCC1CCCCCNS(=O)(=O)NCc1ccc(Cl)cc1` (stereo not drawn) [Example 117, N-(4-Chlorobenzyl)-N′-(5-(1-methyl-pyrrolidin-2S-yl)-pentyl)-sulfamide]: the Ki is 79.4 nM.

`CN1CCCC1CCCCS(=O)(=O)NCC1CCCCC1` (stereo not drawn) [Example 137, N-Cyclohexyl-methyl-4-(1-methyl-pyrrolidin-2S-yl)-butanesulfonamide]: the Ki was 2510 nM.

`CN1CCC[C@H]1CCCNS(=O)(=O)NCc1ccccc1` [Example 108, N-Benzyl-N′-(3-(1-methyl-pyrrolidin-2S-yl)-propyl)-sulfamide]: the Ki is 1580 nM.

Regarding `O=S(=O)(NCCC[C@@H]1CCCN1CCCc1ccc(Cl)cc1)NCc1ccc(Cl)cc1` [Example 118], the Ki is 1580 nM.
